Laboratory results taken from patent US9573899B2, “USP7 inhibitor compounds and methods of use” (Genentech, Inc., priority 2015, dated 2017).
pIC50: −log10 of the molar value.

What was measured:
USP7 = molecular target: T1, USP7 (Homo sapiens, UniProt Q93009); experiment: Ub-Rho110 DUB assay, Table 2, USP7; assay type: biochemical
T1 construct: USP7, full-length, native C-Terminus, 0.2 nM
Protocol: (§3) Biochemical USP7 assays using Ubiquitin-Rho110 as a substrate: The final assay conditions were as follows: The Reaction Buffer consisted of: 50 mM Tris (pH 7.5), 0.01% (v/v) Triton X-100, 2.5 mM Dithiothreitol, 0.1% (w/v) bovine gamma globulin (Sigma cat #G5009-25G); USP7, full-length, native C-Terminus, 0.2 nM; the substrate, Ubiquitin-Rho110 (Boston Biochem cat #U-555), 1 uM. Reactions were carried out for 1 hour at room temperature, in black 20 μL volume polystyrene ProxiPlate 384 F Plus® (PerkinElmer cat #6008260).
(§4) Test compounds, including a control USP7 inhibitor (Ub-aldehyde, Boston Biochem cat #U-201) were serially diluted in DMSO, in 384 well clear V-bottom polypropylene plates (Greiner cat #781280). Compounds in DMSO were diluted 10-fold into Reaction Buffer, to achieve 3-fold the final desired concentration. The substrate, Ubiquitin-Rho110 (Boston Biochem cat #U-555), was prepared at 3 μM (3-fold the final concentration) and 5 ul was dispensed into the reaction plate. 5 ul of the compounds (diluted in Reaction Buffer at 3-fold the final concentration) were transferred to the reaction plate. 5 ul of 0.6 nM USP7 (diluted in Reaction Buffer at 3-fold the final concentration) was transferred to the reaction plate to initiate the reaction. After 1 hour incubation at room temperature the reaction was quenched by the addition of 5 ul of 400 mM acetic acid. The enzymatic product was measured by quantifying the fluorescence signal of cleaved Rhodamine-110 using excitation at 485 nm and emission at 535 nm. When pre-incubation of USP7 with compounds was required, the order of addition of reagents was modified to pre-mix the compounds with USP7 (with a 1 hour incubation period), prior to the addition of the substrate and the initiation of the reaction period. Percentage inhibition values were calculated relative to a no enzyme control and a uninhibited enzyme control. Curve fitting and IC50 calculations were carried out using Genedata Screener software.

[1] = tested on: p53 and p21 in HCT116 colon cancer cell lines; experiment: Western blot of p53 and p21 in isogenic HCT116 cell lines (FIG. 2A); assay type: cell-based, Human; conditions: isogenic HCT116: wild-type, USP7 null
Protocol: (§1) In 24-well plates, 0.10-0.15×10^6 (adherent) or 0.5×10^6 (suspension) cells were treated with 15 μM or 2.5 μM compounds, respectively, for 24 h in low serum prior to lysis for Western Blot analysis.

[2] = tested on: MDM2 in MCF7 breast cancer cells; experiment: MDM2 turnover in MCF7 cells with cycloheximide (FIG. 3A); assay type: cell-based; conditions: 15 μM, in the presence of cycloheximide (CHX)
Protocol: In 24-well plates, 0.15×10^6 MCF-7 cells were treated for a total of 8 h with DMSO or compounds (15 μM). During that 8 h, cycloheximide (CHX) was added for the indicated times prior to harvest.

[3] = tested on: MCF-7 p53 WT breast cancer cells; experiment: Incucyte cell proliferation and caspase activity, MCF-7 (FIG. 10, 17); assay type: cell-based; conditions: MCF-7 p53 WT compared to MDA-MB157 p53 null cells; compared to 89
Protocol: (§2) 2,500-5,000 cells were seeded in 1-well of a 96-well plate (Corning; 3904). The following day, the media was changed from normal (10%) to low serum (0.5%) containing vehicle (DMSO) or compounds. 16-24 h later FBS was added to each well to bring serum levels back to normal (10%). Cells were then allowed to grow for 2 days. All treatments were done in triplicate. The day after cells were seeded, the media was changed to low serum media containing 2 μM CellEvent Caspase 3/7 reagent (Life Technologies; C10423) and compounds. The plates were placed in an IncuCyte (Essen Bioscience, Inc.) live cell imager and scanning was started 15-20 mins after. IncuCyte™ ZOOM facilitates live-cell monitoring via customized imaging protocols. Images were taken every 2 h for at least 3 days, using a 10× objective. Phase contrast was used to measure cell confluency/density while green fluorescence was used to measure caspase activity. The images were analyzed using IncuCyte software (Basic Analysis parameters) and a ratio of caspase activity to cell density was determined.

[4] = tested on: HCT116 cells (wild type and USP7 null); experiment: CellTitre-Glo cell viability, HCT116 wild type and USP7 null (FIG. 4); assay type: cell-based, Human; conditions: HCT116 wild type versus USP7 null
Protocol: 2,500-5,000 cells were seeded in 1-well of a 96-well plate (Corning; 3904). The following day, the media was changed from normal (10%) to low serum (0.5%) containing vehicle (DMSO) or compounds. 16-24 h later FBS was added to each well to bring serum levels back to normal (10%). Cells were then allowed to grow for 2 days. All treatments were done in triplicate.
Seventy two hours after compounds were added, CellTitre Glo (CTG) reagent was added following the protocol provided by the manufacturer (Promega). In the experiment to test compound dependency on USP7, 3× more USP7 null cells were plated per well (7,500 vs. 2,500 for wild-type (WT) cells), given the slower proliferation of USP7 null cells. For the multiple myeloma experiment, cells seeded in low serum and treated with compounds immediately. Twenty four hours later, serum was added back to normal levels. CTG assay was done 24 h later i.e. 48 h after compounds were added instead of 72 hrs later for the adherent cells.

[5] = tested on: U2Os p53 WT osteosarcoma cells; experiment: Incucyte cell proliferation and caspase activity, U2Os (FIG. 11, 16); assay type: cell-based; conditions: U2Os p53 WT compared to SaOs p53 null cells; compared to 89
Protocol: as §2

USP7 catalytic domain = USP7 catalytic domain (Homo sapiens, UniProt Q93009); experiment: Ub-Rho110 DUB assay, Table 2, USP7 catalytic domain; assay type: biochemical; conditions: read-out: Ub-Rho110 IC50, USP7 cat
Protocol: as §3, §4

USP47 = molecular target: T2, USP47 (Homo sapiens, UniProt Q96K76); experiment: Ub-Rho110 DUB assay, Table 2, USP47; assay type: biochemical
T2 sequence (Q96K76 1-1375): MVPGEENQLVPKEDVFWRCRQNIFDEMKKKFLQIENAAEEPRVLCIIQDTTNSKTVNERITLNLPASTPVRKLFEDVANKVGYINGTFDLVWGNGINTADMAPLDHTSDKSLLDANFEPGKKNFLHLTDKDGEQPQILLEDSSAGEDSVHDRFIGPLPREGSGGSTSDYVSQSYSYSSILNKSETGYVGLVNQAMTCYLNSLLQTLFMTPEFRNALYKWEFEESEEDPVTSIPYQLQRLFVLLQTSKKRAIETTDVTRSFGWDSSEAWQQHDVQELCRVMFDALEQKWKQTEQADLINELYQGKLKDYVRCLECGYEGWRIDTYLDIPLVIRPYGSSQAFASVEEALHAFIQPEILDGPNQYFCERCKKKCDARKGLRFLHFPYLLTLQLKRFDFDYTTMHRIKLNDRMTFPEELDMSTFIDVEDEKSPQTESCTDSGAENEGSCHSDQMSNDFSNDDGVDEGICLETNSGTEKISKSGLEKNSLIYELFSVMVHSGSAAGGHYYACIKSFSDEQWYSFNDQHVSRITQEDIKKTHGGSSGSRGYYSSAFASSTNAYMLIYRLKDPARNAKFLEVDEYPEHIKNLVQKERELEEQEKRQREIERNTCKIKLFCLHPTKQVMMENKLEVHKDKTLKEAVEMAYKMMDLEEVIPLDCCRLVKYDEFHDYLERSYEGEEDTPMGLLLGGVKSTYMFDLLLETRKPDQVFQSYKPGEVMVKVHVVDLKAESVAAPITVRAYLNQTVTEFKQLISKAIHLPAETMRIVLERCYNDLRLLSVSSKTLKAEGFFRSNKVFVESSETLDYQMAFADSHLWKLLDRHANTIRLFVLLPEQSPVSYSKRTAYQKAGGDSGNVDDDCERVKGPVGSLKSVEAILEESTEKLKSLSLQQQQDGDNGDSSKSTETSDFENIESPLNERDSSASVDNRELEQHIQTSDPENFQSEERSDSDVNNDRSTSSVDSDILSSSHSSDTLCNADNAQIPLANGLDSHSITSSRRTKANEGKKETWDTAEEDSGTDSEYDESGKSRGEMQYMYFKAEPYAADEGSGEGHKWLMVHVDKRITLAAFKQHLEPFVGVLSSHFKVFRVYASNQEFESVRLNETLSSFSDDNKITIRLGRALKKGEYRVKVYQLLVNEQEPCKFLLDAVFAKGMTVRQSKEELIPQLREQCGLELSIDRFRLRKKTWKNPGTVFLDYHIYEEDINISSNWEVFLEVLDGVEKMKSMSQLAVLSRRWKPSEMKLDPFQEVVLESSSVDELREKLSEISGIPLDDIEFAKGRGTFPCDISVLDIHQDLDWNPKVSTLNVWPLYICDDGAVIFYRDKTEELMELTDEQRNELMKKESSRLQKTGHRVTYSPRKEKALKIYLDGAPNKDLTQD

[6] = tested on: p53, p21, MDM2 and E6AP in RKO, RKO-E6, Vibo and SiHA cell lines; experiment: Western blot in RKO, RKO-E6, Vibo and SiHA cells (FIG. 14A); assay type: cell-based
Protocol: as §1

T1 sequence (Q93009 whole entry): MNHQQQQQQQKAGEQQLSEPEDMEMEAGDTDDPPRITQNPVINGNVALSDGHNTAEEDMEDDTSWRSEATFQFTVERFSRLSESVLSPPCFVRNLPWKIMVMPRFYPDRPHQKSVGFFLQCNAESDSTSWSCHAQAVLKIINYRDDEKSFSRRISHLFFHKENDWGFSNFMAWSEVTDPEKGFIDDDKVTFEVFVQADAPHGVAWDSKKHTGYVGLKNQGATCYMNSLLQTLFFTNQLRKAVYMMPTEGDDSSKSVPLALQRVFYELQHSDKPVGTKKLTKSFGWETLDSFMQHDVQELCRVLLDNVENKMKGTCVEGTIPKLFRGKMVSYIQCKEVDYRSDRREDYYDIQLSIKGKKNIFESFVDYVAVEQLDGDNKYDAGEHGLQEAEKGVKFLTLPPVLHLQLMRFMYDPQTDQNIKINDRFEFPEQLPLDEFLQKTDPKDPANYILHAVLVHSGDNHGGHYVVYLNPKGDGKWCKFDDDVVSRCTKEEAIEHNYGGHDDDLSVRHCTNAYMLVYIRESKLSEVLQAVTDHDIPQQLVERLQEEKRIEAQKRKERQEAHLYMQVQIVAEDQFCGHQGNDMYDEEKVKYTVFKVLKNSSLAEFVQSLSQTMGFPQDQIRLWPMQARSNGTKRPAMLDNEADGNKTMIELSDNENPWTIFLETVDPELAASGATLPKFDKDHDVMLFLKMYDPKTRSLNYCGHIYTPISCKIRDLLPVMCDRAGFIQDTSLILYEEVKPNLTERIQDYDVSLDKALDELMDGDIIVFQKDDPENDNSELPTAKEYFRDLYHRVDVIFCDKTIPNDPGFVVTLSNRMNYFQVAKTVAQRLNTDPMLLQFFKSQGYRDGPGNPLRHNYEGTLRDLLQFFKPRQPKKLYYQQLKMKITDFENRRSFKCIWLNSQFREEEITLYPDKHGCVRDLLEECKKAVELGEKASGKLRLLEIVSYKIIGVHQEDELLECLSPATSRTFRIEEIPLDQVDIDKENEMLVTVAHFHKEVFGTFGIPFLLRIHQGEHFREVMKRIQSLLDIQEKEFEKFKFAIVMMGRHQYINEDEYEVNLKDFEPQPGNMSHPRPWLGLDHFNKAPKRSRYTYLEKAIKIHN
USP7 catalytic domain, sequence (Q93009 214-521 limits assumed): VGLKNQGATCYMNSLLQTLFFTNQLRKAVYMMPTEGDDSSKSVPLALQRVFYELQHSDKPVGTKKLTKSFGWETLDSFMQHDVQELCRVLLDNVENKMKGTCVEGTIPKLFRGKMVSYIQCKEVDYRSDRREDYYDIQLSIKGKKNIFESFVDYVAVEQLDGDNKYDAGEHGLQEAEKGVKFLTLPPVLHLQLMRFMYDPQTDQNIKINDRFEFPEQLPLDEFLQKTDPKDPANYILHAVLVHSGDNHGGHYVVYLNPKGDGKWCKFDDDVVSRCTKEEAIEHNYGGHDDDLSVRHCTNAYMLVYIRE

pIC50 (USP7): 6.01
pIC50 (USP7 catalytic domain): 6.37
pIC50 (USP47): < 3.70
SMILES: CCc1c(-c2ccc3[nH]ncc3c2)cnc(N)c1-c1ccc(O)cc1 [Compound 88, 4-[2-amino-4-ethyl-5-(1H-indazol-5-yl)-3-pyridyl]phenol]
selectivity of antagonism of USP7 catalytic activity over the DUBs evaluated (USP7; conclusion from Table 2 (USP7, USP7 cat, USP47, USP5)): selective antagonists of USP7 catalytic activity
stabilization of p53 and p21 (western blot) [1]: stabilize p53 and p21
destabilizing effect on MDM2 (western blot) [2]: destabilizing effects
cell viability (Incucyte proliferation and caspase activity) [3]: decreases cell viability
cell viability [4]: USP7-dependent decrease in viability
cell viability (Incucyte proliferation and caspase activity) [5]: decreases cell viability
effect on p53, p21, MDM2 and E6AP (western blot) [6]: stabilize p53, p21, and destabilize MDM2 and E6AP
